Target: T1, FLT3-ITD (Homo sapiens, UniProt P36888)
T1 construct: FLT3-ITD; Invitrogen #PV6190
T1 sequence (P36888 1-993): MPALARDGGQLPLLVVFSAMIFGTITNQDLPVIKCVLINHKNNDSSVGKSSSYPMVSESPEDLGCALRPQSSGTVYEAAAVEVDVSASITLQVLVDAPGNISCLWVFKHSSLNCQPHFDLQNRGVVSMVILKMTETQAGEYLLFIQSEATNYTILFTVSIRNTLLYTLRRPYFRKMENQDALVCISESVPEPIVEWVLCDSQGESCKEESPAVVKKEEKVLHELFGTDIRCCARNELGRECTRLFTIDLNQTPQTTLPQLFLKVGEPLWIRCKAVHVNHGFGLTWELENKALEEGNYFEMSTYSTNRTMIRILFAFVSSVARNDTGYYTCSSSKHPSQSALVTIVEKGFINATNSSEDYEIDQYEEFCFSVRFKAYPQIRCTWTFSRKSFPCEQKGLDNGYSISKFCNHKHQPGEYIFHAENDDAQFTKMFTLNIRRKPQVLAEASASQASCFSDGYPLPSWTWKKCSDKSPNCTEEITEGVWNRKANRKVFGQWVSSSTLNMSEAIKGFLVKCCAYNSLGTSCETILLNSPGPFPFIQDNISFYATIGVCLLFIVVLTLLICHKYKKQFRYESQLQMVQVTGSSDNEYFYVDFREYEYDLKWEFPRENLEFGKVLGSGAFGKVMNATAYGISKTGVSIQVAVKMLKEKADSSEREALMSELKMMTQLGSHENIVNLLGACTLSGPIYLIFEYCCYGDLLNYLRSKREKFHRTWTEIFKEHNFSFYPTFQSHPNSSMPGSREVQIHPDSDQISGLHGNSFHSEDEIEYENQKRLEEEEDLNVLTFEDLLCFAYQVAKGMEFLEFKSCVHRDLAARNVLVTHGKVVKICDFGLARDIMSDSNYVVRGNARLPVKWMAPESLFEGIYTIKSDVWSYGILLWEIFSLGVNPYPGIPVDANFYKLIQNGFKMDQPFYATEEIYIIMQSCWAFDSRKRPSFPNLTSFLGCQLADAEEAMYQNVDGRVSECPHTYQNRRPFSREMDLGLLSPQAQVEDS
Experiment: FLT3-ITD biochemical kinase assay (AlphaScreen)
Source text: In order to determine the effect of compounds on FLT3 catalytic activity, kinase assays using recombinant enzymes and AlphaScreen® technology have been established. When the kinases are catalytically active, they phosphorylate a biotinylated peptide substrate on tyrosine residues. Using AlphaScreen® technology, the ability of the compounds to affect the catalytic activity of the kinases can be measured quantitatively. The peptide substrate is immobilized by the AlphaScreen® Streptavidin Donor beads and, upon phosphorylation by a tyrosine kinase, can bind to AlphaScreen® Anti-Phosphotyrosine (PY20) Acceptor beads. Upon excitation of these beads with laser light at 680 nm, singlet oxygen is produced. This singlet oxygen is rapidly quenched, unless the AlphaScreen® Anti-Phosphotyrosine (PY20) Acceptor beads are in close proximity, in which case a proximity signal can be measured at 580 nm. In the presence of catalytic activity, there is a very strong proximity signal. Selective kinase inhibitors affect a decrease in this proximity signal through a decrease in tyrosine phosphorylation of the peptide substrate.
Substrate • Poly (Glu4-Tyr) Peptide, biotin conjugate [Biotin-GG(EEEEY)10EE (SEQ ID NO: 4)] • UBI/Millipore #12-440 • Final concentration=30 nM
Adenosine Triphosphate (ATP) • Sigma #A-3377 • Final concentration for IC50 determination=10 μM (FLT3-D835Y) or 100 μM (FLT3 or FLT3-ITD) • Detection Reagent • AlphaScreen® Phosphotyrosine (PY20) Assay Kit • Perkin-Elmer #6760601M • Final concentration=10 μg/mL
Centrifuge 1 minute, shake to mix, and incubate as follows:
• Mix Streptavidin Donor beads at 6× final concentration in Stop/Detection buffer. • Add 5 μL Streptavidin Donor beads to the reaction plate. Centrifuge 1 minute, shake to mix, and incubate at room temperature for 20 minutes. • Mix Anti-Phosphotyrosine (PY20) Acceptor beads at 6× final concentration in Stop/Detection buffer. • Add 5 μL Anti-Phosphotyrosine (PY20) beads to the reaction plate. • Centrifuge 1 minute, shake to mix, and incubate at room temperature for 60 minutes. • Read plate on Wallac EnVision™ 2103 Multilabel Reader. In Vivo Model System Testing

`CC(C)(C)n1cnc2ccc(-c3c[nH]c4ncc(-c5cncc(NS(C)(=O)=O)c5)cc34)cc21` [P-371, N-[5-[3-(3-tert-butylbenzimidazol-5-yl)-1H-pyrrolo[2,3-b]pyridin-5-yl]-3-pyridyl]methanesulfonamide] gave an IC50 of 0.0001 to 1 µM.
`Cc1ncc(-c2cnc3[nH]cc(-c4ccc5ncn(C(C)(C)C)c5c4)c3c2)cc1C#N` [P-391, 5-[3-(3-tert-butylbenzimidazol-5-yl)-1H-pyrrolo[2,3-b]pyridin-5-yl]-2-methyl-pyridine-3-carbonitrile] gave an IC50 of 0.0001 to 1 µM.
For `Cc1cc(-c2cnc3[nH]cc(-c4ccc5ncn(C(C)(C)C)c5c4)c3c2)cnc1F` [P-394, 1-tert-butyl-6-[5-(6-fluoro-5-methyl-3-pyridyl)-1H-pyrrolo[2,3-b]pyridin-3-yl]benzimidazole], the IC50 was 0.0001 to 1 µM.
Molecule `CC(C)(C)n1cnc2ccc(-c3c[nH]c4ncc(-c5cccc(OCC6CC6)c5)cc34)cc21` [P-373, 1-tert-butyl-6-[5-[3-(cyclopropylmethoxy)phenyl]-1H-pyrrolo[2,3-b]pyridin-3-yl]benzimidazole] has an IC50 of 0.0001 to 1 µM.
With `Cc1cc(-c2cnc3[nH]cc(-c4ccc5ncn(C(C)(C)C)c5c4)c3c2)cnc1C#N` [P-393, 5-[3-(3-tert-butylbenzimidazol-5-yl)-1H-pyrrolo[2,3-b]pyridin-5-yl]-3-methyl-pyridine-2-carbonitrile] the IC50 was 0.0001 to 1 µM.
`COc1ccc(-c2cnc3[nH]cc(-c4ccc5ncn(C(C)(C)C)c5c4)c3c2)cc1NS(C)(=O)=O` [P-370, N-[5-[3-(3-tert-butylbenzimidazol-5-yl)-1H-pyrrolo[2,3-b]pyridin-5-yl]-2-methoxy-phenyl]methanesulfonamide] was tested, and the IC50 was 0.0001 to 1 µM.
With `COc1cc(-c2cnc3[nH]cc(-c4ccc5ncn(C(C)(C)C)c5c4)c3c2)ccc1C#N` [P-372, 4-[3-(3-tert-butylbenzimidazol-5-yl)-1H-pyrrolo[2,3-b]pyridin-5-yl]-2-methoxy-benzonitrile] the IC50 was 0.0001 to 1 µM.
Molecule `CC(C)(C)n1cnc2ccc(-c3c[nH]c4ncc(-c5cnc(NC6CC6)nc5)cc34)cc21` [P-400, 5-[3-(3-tert-butylbenzimidazol-5-yl)-1H-pyrrolo[2,3-b]pyridin-5-yl]-N-cyclopropyl-pyrimidin-2-amine] has an IC50 of 0.0001 to 1 µM.
With `CC(C)(C)n1cnc2ccc(-c3c[nH]c4ncc(-c5cccc(OCC#N)c5)cc34)cc21` [P-367, 2-[3-[3-(3-tert-butylbenzimidazol-5-yl)-1H-pyrrolo[2,3-b]pyridin-5-yl]phenoxy]acetonitrile] the IC50 was 0.0001 to 1 µM.
`CC(C)(C)n1cnc2ccc(-c3c[nH]c4ncc(-c5cccc(OCC(=O)O)c5)cc34)cc21` [P-374, 2-[3-[3-(3-tert-butylbenzimidazol-5-yl)-1H-pyrrolo[2,3-b]pyridin-5-yl]phenoxy]acetic acid] gave an IC50 of 0.0001 to 1 µM.
`CC(C)(C)n1cnc2ccc(-c3c[nH]c4ncc(-c5cncnc5)cc34)cc21` [P-399, 1-tert-butyl-6-(5-pyrimidin-5-yl-1H-pyrrolo[2,3-b]pyridin-3-yl)benzimidazole] showed an IC50 of 0.0001 to 1 µM.
Work on `COCCOc1cncc(-c2cnc3[nH]cc(-c4ccc5ncn(C(C)(C)C)c5c4)c3c2)c1` [P-368, 1-tert-butyl-6-[5-[5-(2-methoxyethoxy)-3-pyridyl]-1H-pyrrolo[2,3-b]pyridin-3-yl]benzimidazole] yielded an IC50 of 0.0001 to 1 µM.
With `C=CCS(=O)(=O)Nc1cccc(-c2cnc3[nH]cc(-c4ccc5ncn(C(C)(C)C)c5c4)c3c2)c1` [P-375, N-[3-[3-(3-tert-butylbenzimidazol-5-yl)-1H-pyrrolo[2,3-b]pyridin-5-yl]phenyl]prop-2-ene-1-sulfonamide] the IC50 was 0.0001 to 1 µM.
